Reference: US6599920B2, “Naphthalene compounds, intermediates, formulations, and methods” (Eli Lilly and Company, priority 1996, dated 2003)
Marks after values point to notes of the source that are not given here.

Assays:
[1] = system: MCF-7 breast adenocarcinoma cells; test: MCF-7 Proliferation Assay; type: cell-based; conditions: Homo sapiens, MCF7; MCF-7 cells, 48 hours with drug; read-out: IC50, inhibition of tumor cell growth (tritiated thymidine uptake)
Description: MCF-7 breast adenocarcinoma cells (ATCC HTB 22) were maintained in MEM (minimal essential medium, phenol red-free, Sigma, St. Louis, Mo.) supplimented with 10% fetal bovine serum (FBS) (V/V), L-glutamine (2 mM), sodium pyruvate (1 mM), HEPES {(N-[2-hydroxyethyl]piperazine-N′-[2-ethanesulfonic acid]10 mm}, non-essential amino acids and bovine insulin (1 ug/mL) (maintenance medium). Ten days prior to assay, MCF-7 cells were switched to maintenance medium supplemented with 10% dextran coated charcoal stripped fetal bovine serum (DCC-FBS) assay medium) in place of 10% FBS to deplete internal stores of steroids. MCF-7 cells were removed from maintenance flasks using cell dissociation medium (Ca++/Mg++ free HBSS (phenol red-free) supplemented with 10 mM HEPES and 2 mM EDTA). Cells were washed twice with assay medium and adjusted to 80,000 cells/mL. Approximately […] (8,000 cells) were added to flat-bottom microculture wells (Costar 3596) and incubated at 37° C. in a 5% CO2 humidified incubator for 48 hours to allow for cell adherence and equilibration after transfer. Serial dilutions of drugs or DMSO as a diluent control were prepared in assay medium and […] to triplicate microcultures […]. […] Samples were counted by liquid scintillation using a Wallac BetaPlace β counter. […]

ovariectomized rats = test: Ovariectomized rat model of postmenopausal hyperlipidemia (serum cholesterol, uterine weight, uterine eosinophil peroxidase); type: in vivo
Description: Experimental models of postmenopausal hyperlipidemia are known in the art. […] to this invention is the ovariectomized rat model which is detailed in U.S. Pat. No. 5,464,845. Data presented in Table 1 show comparative results among ovariectomized rats, rats treated with 17-α-ethynyl estradiol (EE2), and rats treated with certain compounds of this invention. […] This uterine response to estrogen is well recognized in the art. As expressed in the data below, estrogenicity also was assessed by evaluating the response of eosinophil infiltration into the uterus. […] The data presented in Table 1 reflect the response per treatment group. In accordance with the above procedures, compounds of the present invention and ethynyl estradiol (EE2) in 20% hydroxypropyl β-cyclodextrin are orally administered to test animals.

[2] = 0.1 mg/kg PO, in 20% hydroxypropyl β-cyclodextrin

IC50 [1] [pM]	Uterine EPO (Vmax), eosinophil peroxidase (ovariectomized rats; 0.1 mg/kg PO)	Uterine Wt. (% Inc.), uterine weight % increase versus the ovariectomized controls (ovariectomized rats; [2])	Uterine EPO (Vmax), eosinophil peroxidase (ovariectomized rats; 1 mg/kg PO)	Uterine Wt. (% Inc.), uterine weight % increase versus the ovariectomized controls (ovariectomized rats; 1 mg/kg PO)	Uterine EPO (Vmax), eosinophil peroxidase (ovariectomized rats; 10 mg/kg PO)	Uterine Wt. (% Inc.), uterine weight % increase versus the ovariectomized controls (ovariectomized rats; 10 mg/kg PO)	Structure (SMILES)	Serum cholesterol (% Dec.), decrease versus ovariectomized controls (ovariectomized rats; 0.1 mg/kg PO)	Serum cholesterol (% Dec.), decrease versus ovariectomized controls (ovariectomized rats; 1 mg/kg PO)	Serum cholesterol (% Dec.), decrease versus ovariectomized controls (ovariectomized rats; 10 mg/kg PO)	Effect on serum cholesterol (ovariectomized rats; oral, compared to ovariectomized animals)	Effect on uterine weight (ovariectomized rats; oral, compared to ovariectomized animals or EE2)	Eosinophil infiltration into the uterus (ovariectomized rats; oral, stromal layer of uteri)
100	7.5	30.9* %	5.4	31.6* %	6.0	37.2* %	COc1cccc(-c2ccc3cc(OC)ccc3c2Cc2ccc(OCCN3CCCCC3)cc2)c1.Cl [Ex. 1, [2-(3-Methoxyphenyl)-6-methoxynaphthalen-1-yl][4-[2-(1-piperidinyl)ethoxy]phenyl]methane Hydrochloride]	68.4* %	74.1* %	65.0* %			
	4.8	37.6* %	4.8	44.7* %	4.8	28.1* %	Cl.Oc1cccc(-c2ccc3cc(O)ccc3c2Cc2ccc(OCCN3CCCCC3)cc2)c1 [Ex. 2, [2-(3-Hydroxyphenyl)-6-hydroxynaphthalen-1-yl][4-[2-(1-piperidinyl)ethoxy]phenyl]methane Hydrochloride]	6.6%	28.6%	46.6* %			
	133.8*	128.0* %					C#C[C@]1(O)CC[C@H]2[C@@H]3CCc4cc(O)ccc4[C@H]3CC[C@@]21C [EE2, 17-α-Ethynyl-estradiol, reference compound]	87.5* %			caused a decrease in serum cholesterol	substantially greater than the uterine weight of the ovariectomized animals	substantial and expected increase in eosinophil infiltration
